{"source": "patent US20040171603A1", "about": "“Novel therapeutic targets for the treatment of mycobacterial infections and compounds useful therefor” (priority 2001, published 2004)", "key": {"[1]": {"target": "T1, mycobacterial protein kinase G (PknG) (Mycobacterium tuberculosis, UniProt P9WI73)", "T1 construct": "GST; made in house; host or cells: E. coli BL21", "T1 sequence (P9WI73 whole entry)": "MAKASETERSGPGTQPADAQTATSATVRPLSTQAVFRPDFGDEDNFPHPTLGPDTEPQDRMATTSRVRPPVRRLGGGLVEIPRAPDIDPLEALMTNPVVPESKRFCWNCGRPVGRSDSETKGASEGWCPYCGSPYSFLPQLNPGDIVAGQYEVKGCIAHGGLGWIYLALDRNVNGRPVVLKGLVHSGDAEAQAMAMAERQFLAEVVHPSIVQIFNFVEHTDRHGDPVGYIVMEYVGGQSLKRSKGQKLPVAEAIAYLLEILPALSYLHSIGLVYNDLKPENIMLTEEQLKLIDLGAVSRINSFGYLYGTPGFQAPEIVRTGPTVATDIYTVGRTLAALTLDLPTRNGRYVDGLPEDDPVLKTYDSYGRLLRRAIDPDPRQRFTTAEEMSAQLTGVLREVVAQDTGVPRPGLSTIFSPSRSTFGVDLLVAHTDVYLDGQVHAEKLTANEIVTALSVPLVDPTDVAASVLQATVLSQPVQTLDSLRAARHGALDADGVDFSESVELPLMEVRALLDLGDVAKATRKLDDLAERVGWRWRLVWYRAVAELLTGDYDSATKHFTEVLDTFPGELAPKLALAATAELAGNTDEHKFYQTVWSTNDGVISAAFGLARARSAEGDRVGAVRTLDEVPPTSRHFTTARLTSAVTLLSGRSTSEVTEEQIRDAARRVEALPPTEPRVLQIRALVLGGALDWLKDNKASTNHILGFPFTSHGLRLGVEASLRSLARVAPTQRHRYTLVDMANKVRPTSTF", "assay": "biochemical", "conditions": "for IC50: ATP near Km, read-out: Inhibition of PknG (IC50, [μM])"}, "[2]": {"test_system": "M. smegmatis expressing wildtype PknG in murine macrophage cell line RAW", "format": "cell-based, Mycobacterium smegmatis", "conditions": "FIG. 2"}, "[3]": {"conditions": "ranging from about 2 μM and more than 30 μM over the listed compounds, read-out: IC50 values, inhibition of PknG (span stated for the group)"}, "[4]": {"conditions": "read-out: IC50 value, inhibition of serine/threonine protein kinase G of M. tuberculosis"}}, "note": "pIC50: −log10 of the molar value. Where two headings read alike, the source gives them in different places."}
{"smiles": "NC(=O)c1c(NC(=O)Cc2ccc([N+](=O)[O-])cc2)sc2c1CCCC2", "note": "[Compound 238, 2-[2-(4-Nitrophenyl)-acetylamino]-4,5,6,7-tetrahydro-benzo[b]thiophene-3-carboxylic acid amide]", "values": [{"measurement": "IC50", "setting": "[1]", "value": "~5", "unit": "µM"}, {"measurement": "pIC50", "setting": "[1]; [3]", "value": "≤ 5.70"}]}
{"smiles": "O=C(O)c1c(NC(=O)C2CC2)sc2c1CCCC2", "note": "[Compound 252, 2-(Cyclopropanecarbonyl-amino)-4,5,6,7-tetrahydro-benzo[b]thiophene-3-carboxylic acid]", "values": [{"measurement": "IC50", "setting": "[1]", "value": "~19", "unit": "µM"}, {"measurement": "pIC50", "setting": "[1]; [3]", "value": "≤ 5.70"}]}
{"smiles": "CCC(C)C(=O)Nc1sc2c(c1C(N)=O)CCCC2", "note": "(centres unmarked) [Compound 267, 2-(2-Methyl-butyrylamino)-4,5,6,7-tetrahydrobenzo[b]thiophene-3-carboxylic acid amide]", "values": [{"measurement": "IC50", "setting": "[1]", "value": "~15", "unit": "µM"}, {"measurement": "pIC50", "setting": "[1]; [3]", "value": "≤ 5.70"}]}
{"smiles": "NC(=O)c1c(NC(=O)C2CC2)sc2c1CCSC2", "note": "[Compound 286, 2-(Cyclopropanecarbonyl-amino)-4,7-dihydro-5H-thieno[2,3-c]-thiopyran-3-carboxylic acid amide]", "values": [{"measurement": "IC50", "setting": "[1]", "value": "~2", "unit": "µM"}, {"measurement": "pIC50", "setting": "[1]; [3]", "value": "≤ 5.70"}]}
{"smiles": "CCOC(=O)c1c(NC(=O)C(C)C)sc2c1CCCC2", "note": "[Compound 256, 2-Isobutyrylamino-4,5,6,7-tetrahydrobenzo[b]thiophene-3-carboxylic acid ethyl ester]", "values": [{"measurement": "IC50", "setting": "[1]", "value": "> 30", "unit": "µM"}, {"measurement": "pIC50", "setting": "[1]; [3]", "value": "≤ 5.70"}]}
{"smiles": "NC(=O)c1c(NC(=O)C2CCC2)sc2c1CCCC2", "note": "[Compound 266, 2-(Cyclobutanecarbonyl-amino)-4,5,6,7-tetrahydrobenzo[b]thiophene-3-carboxylic acid amide]", "values": [{"measurement": "IC50", "setting": "[1]", "value": "~3", "unit": "µM"}, {"measurement": "pIC50", "setting": "[1]; [3]", "value": "≤ 5.70"}]}
{"smiles": "CC(C)C(=O)Nc1sc2c(c1C(N)=O)CCCC2", "note": "[Compound 255, 2-Isobutyrylamino-4,5,6,7-tetrahydrobenzo[b]thiophene-3-carboxylic acid amide]", "values": [{"measurement": "IC50", "setting": "[1]", "value": "~3", "unit": "µM"}, {"measurement": "pIC50", "setting": "[1]; [3]", "value": "≤ 5.70"}]}
{"smiles": "NC(=O)c1c(NC(=O)C2CC2)sc2c1CCCC2", "note": "[Compound 237, 2-(Cyclopropanecarbonyl-amino)-4,5,6,7-tetrahydro-benzo[b]thiophene-3-carboxylic acid amide]", "values": [{"measurement": "resistance to macrophage degradation of wildtype PknG-expressing M. smegmatis", "setting": "[2]; 1 μM or 10 μM", "value": "overcomes the resistance to macrophage degradation"}, {"measurement": "clearance of PknG-expressing M. smegmatis in macrophages", "setting": "[2]; 10 μM, 24 hours postinfection, RAW cells", "value": "as efficient as observed with the mutant or vector control transformants"}, {"measurement": "pIC50", "setting": "[1]; [4]", "value": 6.70}]}
{"smiles": "O=C(Nc1sc2c(c1C(=O)NCCO)CCCC2)c1ccco1", "note": "[Compound 240, Furan-2-carboxylic acid [3-(2-hydroxy-ethylcarbamoyl)-4,5,6,7-tetrahydro-benzo[b]thiophen-2-yl]-amide]", "values": [{"measurement": "IC50", "setting": "[1]", "value": 16, "unit": "µM"}, {"measurement": "pIC50", "setting": "[1]; [3]", "value": "≤ 5.70"}]}
{"smiles": "CC(=O)Nc1sc2c(c1C(N)=O)CCCC2", "note": "[Compound 250, 2-Acetylamino-4,5,6,7-tetrahydrobenzo[b]thiophene-3-carboxylic acid amide]", "values": [{"measurement": "IC50", "setting": "[1]", "value": "> 30", "unit": "µM"}, {"measurement": "pIC50", "setting": "[1]; [3]", "value": "≤ 5.70"}]}
{"smiles": "CC(=O)Nc1sc2c(c1C(N)=O)CCC(C)C2", "note": "(centres unmarked) [Compound 284, 2-Acetylamino-6-methyl-4,5,6,7-tetrahydrobenzo[b]thiophene-3-carboxylic acid amide]", "values": [{"measurement": "IC50", "setting": "[1]", "value": "~12", "unit": "µM"}, {"measurement": "pIC50", "setting": "[1]; [3]", "value": "≤ 5.70"}]}
{"smiles": "CC1CCc2c(sc(NC(=O)C3CC3)c2C(N)=O)C1", "note": "(centres unmarked) [Compound 270, 2-(Cyclopropanecarbonyl-amino)-6-methyl-4,5,6,7-tetrahydrobenzo[b]thiophene-3-carboxylic acid amide]", "values": [{"measurement": "pIC50", "setting": "[1]; [4]", "value": 6.05}]}
{"smiles": "CC1CCc2c(sc(NC(=O)Cn3cnc([N+](=O)[O-])n3)c2C(N)=O)C1", "note": "(centres unmarked) [Compound 239, 6-Methyl-2-[2-(3-nitro-[1,2,4]triazol-1-yl)-acetylamino]-4,5,6,7-tetrahydro-benzo[b]thiophene-3-carboxylic acid amide]", "values": [{"measurement": "IC50", "setting": "[1]", "value": "> 30", "unit": "µM"}, {"measurement": "pIC50", "setting": "[1]; [3]", "value": "≤ 5.70"}]}
